Values joined by “and” are separate entries in the source; they are usually repeats but may differ in a detail not shown here. Equal entries are not always repeated.
Key:
[1] = test system: LPS-induced acute lung injury in mice; test: LPS-induced acute lung injury in mice, inflammatory factors in lung tissue homogenate; format: in vivo; conditions: 50 mg/kg intraperitoneal, 7 days, left lung homogenate, mean±SD
[2] = test system: Escherichia coli-induced pneumonia in mice; test: Escherichia coli-induced pneumonia in mice, inflammatory factors in lung tissue homogenate; format: in vivo; conditions: 100 mg/kg intragastric (positive control), 7 days, left lung homogenate, mean±SD

Row | Compound | IL-6 [1] | IL-8 [1] | TNF-α [1] | Tp (Total protein) [1] | IL-6 [2] | IL-8 [2] | TNF-α [2] | Tp [2] | IL-6 ([2]; listed as gentamicin sulfate) | IL-8 ([2]; listed as gentamicin sulfate) | TNF-α ([2]; listed as gentamicin sulfate)
1 | C[C@@H]1C[C@H]2[C@@H]3CCC4=CC(=O)C=C[C@]4(C)[C@@]3(F)[C@@H](O)C[C@]2(C)[C@@]1(O)C(=O)CO [Dexamethasone, dexamethasone] | 255.18 ± 35.63 pg/mL | 52.7 ± 9.99 pg/mL | 861.41 ± 71.04 pg/mL | 202.40 ± 16.54 µg/mL | – | – | – | – | – | – | –
2 | gentamicin sulfate [Gentamycin Sulfate] | – | – | – | – | 285.16 ± 32.71 pg/mL | 49.36 ± 10.01 pg/mL | 834.10 ± 70.10 pg/mL | significantly decreased and 197.05 ± 14.20 μg/mL | significantly decreased | significantly decreased | significantly decreased

Reference: patent publication US20200206257A1, “HOMOGENEOUS POLY[…]-B4, DERIVED FROM HERBA EPHEDRA, PREPARATION METHOD AND MEDICAL USE THEREOF” (priority 2018, published 2020)
